{"source": "patent EP4813403A1", "about": "“USE OF GLP-1R/GIPR DOUBLE-TARGET AGONIST IN PREPARING ANIMAL DRUG” (Hangzhou Zhongmeihuadong Pharmaceutical Co., Ltd., priority 2023, dated 2025)", "key": {"monkey GIPR": {"test_system": "monkey GIPR", "test": "Agonistic activity on GIPR of different species (LANCE Ultra cAMP assay): monkey", "format": "cell-based", "conditions": "ratio of EC50 value of other species to human EC50 value", "protocol": "(§1) CHO-K1 cells were seeded in a 6-well plate at 0.6×10^6 cells/well and incubated overnight in an incubator at a temperature of 37 °C and a carbon dioxide concentration of 5%. The next day, CHO-K1 cell media were replaced. Then two tubes A and B were prepared for each plasmid. 100 µL Opti-MEM was added to tube A, then 4 µL Lipofectamine™ 3000 was added and mixed uniformly. 100 µL Opti-MEM was firstly added to tube B, then 2 µg of one of the plasmids (human GIPR-pcDNA5 (+) plasmid, dog GIPR-pcDNA5 (+) plasmid, mouse GIPR-pcDNA5 (+) plasmid, rat GIPR-pcDNA5 (+) plasmid, rabbit GIPR-pcDNA5 (+) plasmid, monkey GIPR-pcDNA5 (+) plasmid) was added and mixed uniformly, and 4 µL P3000™ was added to tube B and mixed uniformly (the ratio of plasmid to transfection reagent was 1 µg: 2 µL). […]\n(§2) 18-20 hours after transfection, human GIPR-CHO, dog GIPR-CHO, mouse GIPR-CHO, rat GIPR-CHO, rabbit GIPR-CHO, and monkey GIPR-CHO cells were resuspended in 1×Casein Stimulation Buffer (HBSS, 5 mM HEPES, 0.5 mM IBMX, 0.1% casein, pH7.4), and seeded into a 384-well cell culture plate at 9 µL/well (cell numbers being 1000, 2000, 2000, 2000, 2000, 2000 cells/well, respectively). […] The readings at 665 nm and 620 nm were determined with a 330 nm excitation light on a microplate reader. The 665 nm/620 nm reading ratio was calculated. […]"}, "dog GIPR": {"target": "T1, dog GIPR (Canis lupus familiaris, UniProt A0A8I3MPG1)", "T1 construct": "expressed in transfected cells; host or cells: CHO-K1 (transient)", "T1 sequence (A0A8I3MPG1 24-449)": "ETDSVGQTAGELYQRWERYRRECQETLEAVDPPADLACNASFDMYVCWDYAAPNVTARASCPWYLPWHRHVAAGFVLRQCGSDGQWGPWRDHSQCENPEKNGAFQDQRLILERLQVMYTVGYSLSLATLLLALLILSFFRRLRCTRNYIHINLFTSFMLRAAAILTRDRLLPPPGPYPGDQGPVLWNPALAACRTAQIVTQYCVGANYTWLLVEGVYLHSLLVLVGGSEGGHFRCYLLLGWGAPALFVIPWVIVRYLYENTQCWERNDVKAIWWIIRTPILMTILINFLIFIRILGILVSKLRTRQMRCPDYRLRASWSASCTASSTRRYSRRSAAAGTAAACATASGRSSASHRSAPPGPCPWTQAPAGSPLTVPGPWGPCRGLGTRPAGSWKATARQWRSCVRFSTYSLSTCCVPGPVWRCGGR", "test": "Agonistic activity on GIPR of different species (LANCE Ultra cAMP assay): dog", "format": "cell-based", "conditions": "ratio of EC50 value of other species to human EC50 value", "protocol": "as §1, §2"}, "rat GLP-1R": {"target": "T2, rat GLP-1R (Rattus norvegicus, UniProt P32301)", "T2 construct": "expressed in transfected cells", "T2 sequence (P32301 22-463)": "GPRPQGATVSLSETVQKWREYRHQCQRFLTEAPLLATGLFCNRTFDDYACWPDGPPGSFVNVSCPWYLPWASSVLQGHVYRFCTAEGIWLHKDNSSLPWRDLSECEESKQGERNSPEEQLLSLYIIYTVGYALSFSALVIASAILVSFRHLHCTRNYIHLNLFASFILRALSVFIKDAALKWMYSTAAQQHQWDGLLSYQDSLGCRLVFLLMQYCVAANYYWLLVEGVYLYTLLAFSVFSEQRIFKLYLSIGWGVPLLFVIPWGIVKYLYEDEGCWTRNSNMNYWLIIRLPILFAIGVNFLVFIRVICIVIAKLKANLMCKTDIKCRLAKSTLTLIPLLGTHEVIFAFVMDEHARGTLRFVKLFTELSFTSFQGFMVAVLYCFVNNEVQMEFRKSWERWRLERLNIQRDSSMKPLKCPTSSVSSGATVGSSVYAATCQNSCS", "test": "Agonistic activity on GLP-1R of different species (LANCE Ultra cAMP assay): rat", "format": "cell-based", "conditions": "ratio of EC50 value of other species to human EC50 value"}, "obese cats": {"test_system": "obese cats", "test": "Weight loss efficacy in obese cats", "format": "in vivo", "conditions": "s.c. QW escalating doses", "protocol": "This study evaluated the weight loss efficacy of the compound of this invention through multiple subcutaneous administrations to obese cats, with changes in cat body weights being monitored. The study involved cats aged 8 months or older with a body condition score (BCS) of ≥6. […] G11 (control group), G12, G13, and […]. . Group G11 served as the vehicle control group. […] The animals' body weights were measured at a fixed time every 7 days after administration, and food intake was measured once per day. Blood tests for routine and biochemical parameters were conducted before grouping and on […]. Body condition score (BCS), feline body mass index (FBMI), and abdominal circumference (AC) were measured once a week. The data were statistically analyzed using ANOVA. If ANOVA yielded statistical significance (p < 0.05) and the variances were homogeneous, Tukey's test was used for intergroup comparisons. If the variances were heterogeneous, Dunnett's T3 test was used. Results are presented as means and standard errors of the mean (Mean ± SEM). The significance level was set at 0.05, and both statistical and biological significance were considered in the analysis."}, "rat GIPR": {"target": "T3, rat GIPR (Rattus norvegicus, UniProt P43219)", "T3 construct": "expressed in transfected cells; host or cells: CHO-K1 (transient)", "T3 sequence (P43219 19-455)": "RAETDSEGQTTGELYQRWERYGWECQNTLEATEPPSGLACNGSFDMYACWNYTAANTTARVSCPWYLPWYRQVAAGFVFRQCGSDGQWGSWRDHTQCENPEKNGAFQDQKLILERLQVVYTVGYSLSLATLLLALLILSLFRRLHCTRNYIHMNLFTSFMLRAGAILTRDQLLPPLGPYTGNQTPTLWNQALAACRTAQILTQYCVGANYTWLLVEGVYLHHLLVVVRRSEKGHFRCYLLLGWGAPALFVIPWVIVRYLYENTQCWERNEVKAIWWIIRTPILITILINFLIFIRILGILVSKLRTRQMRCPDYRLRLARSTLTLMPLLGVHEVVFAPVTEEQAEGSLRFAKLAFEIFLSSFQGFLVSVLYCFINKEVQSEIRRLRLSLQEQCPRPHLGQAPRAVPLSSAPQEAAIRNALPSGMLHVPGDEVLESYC", "test": "Agonistic activity on GIPR of different species (LANCE Ultra cAMP assay): rat", "format": "cell-based", "conditions": "ratio of EC50 value of other species to human EC50 value"}}}
{"smiles": "CC[C@H](C)[C@H](NC(=O)C(C)(C)NC(=O)[C@H](Cc1ccc(O)cc1)NC(=O)[C@H](CC(=O)O)NC(=O)[C@H](CO)NC(=O)[C@@H](NC(=O)C(C)(Cc1ccccc1)NC(=O)[C@@H](NC(=O)CNC(=O)[C@H](CCC(=O)O)NC(=O)C(C)(C)NC(=O)[C@@H](N)Cc1ccc(O)cc1)[C@@H](C)O)[C@@H](C)O)C(=O)NC(C)(C)C(=O)N[C@@H](CC(C)C)C(=O)N[C@@H](CC(=O)O)C(=O)N[C@@H](CCCCN)C(=O)N[C@@H](CCC(N)=O)C(=O)N[C@@H](C)C(=O)N[C@@H](CCC(N)=O)C(=O)N[C@@H](C)C(=O)N[C@@H](CCC(=O)O)C(=O)N[C@@H](Cc1ccccc1)C(=O)N[C@H](C(=O)N[C@@H](CCCCNC(=O)COCCOCCNC(=O)COCCOCCNC(=O)COCCOCCNC(=O)CC[C@H](NC(=O)CCCCCCCCCCCCCCCCCCCCC(=O)O)C(=O)O)C(=O)N[C@@H](Cc1c[nH]c2ccccc12)C(=O)N[C@@H](CC(C)C)C(=O)N[C@@H](CC(C)C)C(=O)N[C@@H](CCCCN)C(=O)NCC(=O)NCC(=O)N1CCC[C@H]1C(=O)N[C@@H](CO)C(=O)N[C@@H](CO)C(=O)NCC(=O)N[C@@H](C)C(=O)N1CCC[C@H]1C(=O)N1CCC[C@H]1C(=O)N1CCC[C@H]1C(=O)N[C@@H](CO)C(=O)N[C@@H](CCCCN)C(N)=O)C(C)C", "note": "(stereo partly shown) [Compound P016]", "values": [{"measurement": "GIPR EC50 ratio", "setting": "monkey GIPR", "value": 5.77}, {"measurement": "GIPR EC50 ratio", "setting": "dog GIPR", "value": 2.88}, {"measurement": "GLP-1R EC50 ratio", "setting": "rat GLP-1R", "value": 1.59}, {"measurement": "effective dose for weight loss", "setting": "obese cats", "value": 96, "unit": "nmol/kg"}, {"measurement": "effective dose for weight loss", "setting": "obese cats; equivalent of the nmol/kg dose", "value": 0.5, "unit": "mg/kg"}, {"measurement": "maximum weight loss", "setting": "obese cats; five administrations", "value": 19.45, "unit": "%"}, {"measurement": "GIPR EC50 ratio", "setting": "rat GIPR", "value": 2.22}]}
